Values joined by “and” are separate entries in the source; they are usually repeats but may differ in a detail not shown here. Equal values may be shown once. Inconclusive results and toxic doses are left out. Rule for the calls: active = survival T/C of 150% or more; inactive = T/C below 125% in these data.
System: P388 leukemia ip, CD2F1 mice, survival T/C
Test: NCI In Vivo Anticancer Drug Screen. Data for tumor model P388 Leukemia (intraperitoneal) in CD2F1 (CDF1) mice
Details: endpoint: median survival time, higher = longer survival
Method in brief: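 Mice carrying the transplanted tumor received test compound or vehicle. Survival was recorded in each group, and the value is the treated-group measurement divided by that of the vehicle-treated control group.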

[1] = dose: 25.0 mg/kg/injection, schedule: Q01DX009 (ip), vehicle: other
[2] = dose: 50.0 mg/kg/injection, schedule: Q01DX009 (ip), vehicle: other
[3] = dose: 50.0 mg/kg/injection, schedule: Q01DX009 (ip), vehicle: saline
[4] = dose: 100.0 mg/kg/injection, schedule: Q01DX009 (ip), vehicle: saline
[5] = dose: 200.0 mg/kg/injection, schedule: Q01DX009 (ip), vehicle: saline
[6] = dose: 60.0 mg/kg/injection, schedule: Q01DX005 (ip), vehicle: saline with Tween-80
[7] = dose: 120.0 mg/kg/injection, schedule: Q01DX005 (ip), vehicle: saline with Tween-80
[8] = dose: 240.0 mg/kg/injection, schedule: Q01DX005 (ip), vehicle: saline with Tween-80
[9] = dose: 50.0 mg/kg/injection, schedule: Q01DX005 (ip), vehicle: Klucel (hydroxypropylcellulose) (HPC)
[10] = dose: 100.0 mg/kg/injection, schedule: Q01DX005 (ip), vehicle: Klucel (hydroxypropylcellulose) (HPC)
[11] = dose: 200.0 mg/kg/injection, schedule: Q01DX005 (ip), vehicle: Klucel (hydroxypropylcellulose) (HPC)
[12] = dose: 50.0 mg/kg/injection, schedule: Q01DX009 (ip), vehicle: saline with Tween-80

Measured: T/C

CCCCCCCCCCCCCCCC(=O)N(CC#CCN(CCCN(C)C)C(=O)CCCCCCCCCCCCCCC)CCCN(C)C
inactive: [1] 95 % of control | [2] 87 % of control

CCCCCCC[CH2][Sn]([CH2]CCCCCCC)([S]CC(=O)OCCCC)[S]CC(=O)OCCCC
inactive: [3] 99 % of control | [4] 92 % of control and 95 % of control | [5] 92 % of control and 94 % of control

COc1ccc2[nH]c(=O)oc(=O)c2c1
inactive: dose: 25.0 mg/kg/injection, schedule: Q01DX009 (ip), vehicle: saline 100 % of control | [3] 96 % of control | [4] 107 % of control | [5] 107 % of control

Cc1cc(O)c(CO)cc1C
inactive: dose: 100.0 mg/kg/injection, schedule: Q04DX002 (ip), vehicle: saline with Tween-80 104 % of control | dose: 200.0 mg/kg/injection, schedule: Q04DX002 (ip), vehicle: saline with Tween-80 110 % of control | dose: 400.0 mg/kg/injection, schedule: Q04DX002 (ip), vehicle: saline with Tween-80 107 % of control

Cc1cc2cc3c(c(C(=O)O)c2o1)C(=O)c1ccccc1C3
inactive: [6] 107 % of control | [7] 111 % of control | [8] 94 % of control

O=C(CCl)N1CCN(c2ccccn2)CC1
inactive: [6] 109 % of control | [7] 110 % of control | [8] 116 % of control

C=CC(C)(C)C1(O)Oc2cc(OC)ccc2C=C1c1ccccc1 (stereo unspecified)
inactive: dose: 100.0 mg/kg/injection, schedule: Q01DX001 (ip), vehicle: Klucel (hydroxypropylcellulose) (HPC) 101 % of control | dose: 200.0 mg/kg/injection, schedule: Q01DX001 (ip), vehicle: Klucel (hydroxypropylcellulose) (HPC) 101 % of control | dose: 400.0 mg/kg/injection, schedule: Q01DX001 (ip), vehicle: Klucel (hydroxypropylcellulose) (HPC) 91 % of control

CNc1nc(N(C)C)nc(N(C)C)n1
inactive: dose: 6.25 mg/kg/injection, schedule: Q01DX009 (ip), vehicle: water 105 % of control and 96 % of control | dose: 12.5 mg/kg/injection, schedule: Q01DX009 (ip), vehicle: water 105 % of control | dose: 16.0 mg/kg/injection, schedule: Q03HX008 (ip), vehicle: water 102 % of control | dose: 16.0 mg/kg/injection, schedule: Q03HX016 (ip), vehicle: water 96 % of control | dose: 16.0 mg/kg/injection, schedule: Q03HX024 (ip), vehicle: water 96 % of control | dose: 25.0 mg/kg/injection, schedule: Q01DX009 (ip), vehicle: water 105 % of control | dose: 30.0 mg/kg/injection, schedule: Q01DX009 (ip), vehicle: water 104 % of control | dose: 32.0 mg/kg/injection, schedule: Q01DX005 (ip), vehicle: water 99 % of control | dose: 32.0 mg/kg/injection, schedule: Q01DX009 (ip), vehicle: water 86 % of control | dose: 32.0 mg/kg/injection, schedule: Q01DX009 (oral), vehicle: water 110 % of control | dose: 32.0 mg/kg/injection, schedule: Q01DX009 (sc), vehicle: water 106 % of control | dose: 32.0 mg/kg/injection, schedule: Q03HX008 (ip), vehicle: water 103 % of control | dose: 32.0 mg/kg/injection, schedule: Q03HX016 (ip), vehicle: water 100 % of control | dose: 32.0 mg/kg/injection, schedule: Q03HX024 (ip), vehicle: water 114 % of control | dose: 44.0 mg/kg/injection, schedule: Q01DX009 (ip), vehicle: water 104 % of control | dose: 50.0 mg/kg/injection, schedule: Q01DX009 (ip), vehicle: water 112 % of control | dose: 64.0 mg/kg/injection, schedule: Q01DX001 (ip), vehicle: water 102 % of control | dose: 64.0 mg/kg/injection, schedule: Q01DX001 (oral), vehicle: water 103 % of control | dose: 64.0 mg/kg/injection, schedule: Q01DX005 (ip), vehicle: water 109 % of control | dose: 64.0 mg/kg/injection, schedule: Q01DX009 (ip), vehicle: water 93 % of control | dose: 64.0 mg/kg/injection, schedule: Q01DX009 (oral), vehicle: water 115 % of control | dose: 64.0 mg/kg/injection, schedule: Q01DX009 (sc), vehicle: water 117 % of control | dose: 64.0 mg/kg/injection, schedule: Q04DX003 (ip), vehicle: water 105 % of control | dose: 64.0 mg/kg/injection, schedule: Q08DX002 (ip), vehicle: water 103 % of control | dose: 67.0 mg/kg/injection, schedule: Q01DX009 (ip), vehicle: water 116 % of control | dose: 128.0 mg/kg/injection, schedule: Q01DX001 (ip), vehicle: water 102 % of control | dose: 128.0 mg/kg/injection, schedule: Q01DX001 (oral), vehicle: water 101 % of control | dose: 128.0 mg/kg/injection, schedule: Q01DX005 (ip), vehicle: water 99 % of control | dose: 128.0 mg/kg/injection, schedule: Q01DX009 (oral), vehicle: water 96 % of control | dose: 128.0 mg/kg/injection, schedule: Q01DX009 (sc), vehicle: water 86 % of control | dose: 128.0 mg/kg/injection, schedule: Q04DX003 (ip), vehicle: water 112 % of control | dose: 128.0 mg/kg/injection, schedule: Q08DX002 (ip), vehicle: water 114 % of control | dose: 256.0 mg/kg/injection, schedule: Q01DX001 (oral), vehicle: water 100 % of control

COc1ccc(CCN(C=O)c2ccc(OC)c(OC)c2)cc1OC
inactive: [1] 115 % of control | [2] 108 % of control | dose: 100.0 mg/kg/injection, schedule: Q01DX009 (ip), vehicle: other 102 % of control | dose: 200.0 mg/kg/injection, schedule: Q01DX009 (ip), vehicle: other 108 % of control | dose: 400.0 mg/kg/injection, schedule: Q01DX009 (ip), vehicle: other 96 % of control

CN1C=CC=CC1=C1C(=O)c2ccccc2C1=O
inactive: [9] 96 % of control | [10] 104 % of control | [11] 107 % of control

CCOC(=O)CC1(O)CSc2nc(N)cc(=O)n21 (stereo unspecified)
inactive: [9] 94 % of control | [10] 99 % of control | [11] 91 % of control

Cn1c(C(C)(C)O)cnc1[N+](=O)[O-]
inactive: [12] 103 % of control | dose: 200.0 mg/kg/injection, schedule: Q01DX009 (ip), vehicle: saline with Tween-80 94 % of control

CC(=O)c1nc(-c2ccccc2)[nH]c1C
inactive: dose: 25.0 mg/kg/injection, schedule: Q01DX009 (ip), vehicle: saline with Tween-80 101 % of control | [12] 104 % of control | dose: 100.0 mg/kg/injection, schedule: Q01DX009 (ip), vehicle: saline with Tween-80 105 % of control | dose: 100.0 mg/kg/injection, schedule: Q04DX003 (ip), vehicle: saline with Tween-80 99 % of control | dose: 200.0 mg/kg/injection, schedule: Q04DX003 (ip), vehicle: saline with Tween-80 90 % of control

Cc1nc(Nc2ccc(F)cc2)c2c(C)c(CC(C)C)[nH]c2n1
inactive: [9] 87 % of control | [10] 91 % of control | [11] 100 % of control

COc1ccc(Cc2coc3cc(OC)cc(OC)c3c2=O)cc1
inactive: [6] 98 % of control | [7] 97 % of control | [8] 94 % of control

COC(=O)c1ccccc1N=NN(C)CC1OC2OC(C)(C)OC2C1OC (stereo unspecified)
inactive: dose: 100.0 mg/kg/injection, schedule: Q01DX001 (ip), vehicle: saline with Tween-80 99 % of control | dose: 200.0 mg/kg/injection, schedule: Q01DX001 (ip), vehicle: saline with Tween-80 99 % of control | dose: 400.0 mg/kg/injection, schedule: Q01DX001 (ip), vehicle: saline with Tween-80 97 % of control

— PubChem BioAssay AID330 (DTP/NCI, 2004)
